Converted amounts (≈) assume the structure as drawn. The source made the active and inactive calls. No cut-off for these calls is given here.
Key:
[1] = tested on: Candida albicans; assay: Antifungal activity against Candida albicans ATCC 10231 measured after 48 hrs by CLSI M27-A3 protocol based method; type: functional; conditions: ATCC 10231, 48 h
[2] = tested on: Candida albicans; assay: Antifungal activity against fluconazole/ITC-resistant Candida albicans ATCC 90819 measured after 48 hrs by CLSI M27-A3 protocol based method; type: functional; conditions: Candida albicans, ATCC 90819, 48 h; read-out: MIC
[3] = tested on: Candida parapsilosis; assay: Antifungal activity against Candida parapsilosis ATCC 22019 measured after 48 hrs in presence of 10% FBS by CLSI M27-A3 protocol based method; type: functional; conditions: Lodderomyces parapsilosis, ATCC 22019, 48 h
[4] = tested on: Candida albicans; assay: Inhibition of Candida albicans ATCC 10231 ERG11 assessed as eburicol composition of total sterols at 0.48 ug/ml incubated for 10 mins followed by saponification for 2 hrs by GC-MS method relative to control; parameters: scale not given: the % may be the effect or the level left
[5] = Hemolytic activity in mouse RBC at 3.9 ug/ml after 1 hr relative to control; type: ADME, cell-based, Erythrocyte; conditions: mouse red blood cells (erythrocytes), read-out: Activity
[6] = tested on: Nakaseomyces glabratus; assay: Antifungal activity against Candida glabrata isolate CG2 measured after 48 hrs by CLSI M27-A3 protocol based method; type: functional; conditions: Nakaseomyces glabratus, isolate CG2, 48 h; read-out: MIC
[7] = tested on: Aspergillus nidulans; assay: Antifungal activity against Aspergillus nidulans ATCC 38163 measured after 48 hrs by CLSI M38-A2 protocol based method; type: functional; conditions: ATCC 38163, 48 h
[8] = tested on: Candida albicans; assay: Inhibition of Candida albicans ATCC 10231 ERG11 assessed as ergosterol composition of total sterols at 0.48 ug/ml incubated for 10 mins followed by saponification for 2 hrs by GC-MS method (reference value: 100%); parameters: scale not given: the % may be the effect or the level left
[9] = tested on: Candida albicans; assay: Antifungal activity against Candida albicans ATCC 10231 measured after 48 hrs in presence of 10% FBS by CLSI M27-A3 protocol based method; type: functional; conditions: Candida albicans, ATCC 10231, 48 h
[10] = Hemolytic activity in mouse RBC at 7.8 ug/ml after 1 hr relative to control; type: ADME, cell-based, Erythrocyte; conditions: mouse red blood cells (erythrocytes), read-out: Activity
[11] = Hemolytic activity in mouse RBC at 31.3 ug/ml after 1 hr relative to control; type: ADME, cell-based, Erythrocyte; conditions: mouse red blood cells (erythrocytes), at 31.3 µg/mL, read-out: Activity
[12] = tested on: Candida albicans; assay: Inhibition of Candida albicans ATCC 10231 ERG11 assessed as lanosterol composition of total sterols at 0.48 ug/ml incubated for 10 mins followed by saponification for 2 hrs by GC-MS method relative to control; parameters: scale not given: the % may be the effect or the level left
[13] = tested on: Candida albicans; assay: Inhibition of Candida albicans ATCC 10231 ERG11 assessed as 14alphamethyl ergosta-8,24(28)-diene-3beta,6alpha-diol composition of total sterols at 0.48 ug/ml incubated for 10 mins followed by saponification for 2 hrs by GC-MS method relative to control; parameters: scale not given: the % may be the effect or the level left
[14] = tested on: Nakaseomyces glabratus; assay: Antifungal activity against Candida glabrata ATCC 2001 measured after 48 hrs by CLSI M27-A3 protocol based method; type: functional, CBS 138; conditions: Nakaseomyces glabratus, CBS 138, 48 h; read-out: MIC
[15] = Hemolytic activity in mouse RBC at 0.48 ug/ml after 1 hr relative to control; type: ADME, cell-based, Erythrocyte; conditions: mouse red blood cells (erythrocytes), read-out: Activity
[16] = tested on: Candida parapsilosis; assay: Antifungal activity against Candida parapsilosis ATCC 22019 measured after 48 hrs by CLSI M27-A3 protocol based method; type: functional; conditions: Lodderomyces parapsilosis, ATCC 22019, 48 h
[17] = tested on: Aspergillus flavus; assay: Antifungal activity against Aspergillus flavus ATCC MYA-3631 measured after 48 hrs by CLSI M38-A2 protocol based method; type: functional; conditions: ATCC MYA-3631, 48 h
[18] = tested on: Nakaseomyces glabratus; assay: Antifungal activity against Candida glabrata isolate CG3 measured after 48 hrs by CLSI M27-A3 protocol based method; type: functional; conditions: Nakaseomyces glabratus, 48 h; read-out: MIC
[19] = tested on: Candida parapsilosis; assay: Antifungal activity against Candida parapsilosis isolate CP2 measured after 48 hrs by CLSI M27-A3 protocol based method; type: functional; conditions: Lodderomyces parapsilosis, isolate CP2, 48 h
[20] = Cytotoxicity against HEK293 cells assessed as cell survival at 3.9 ug/ml after 24 hrs by resazurin based assay relative to control; conditions: human, read-out: Survival
[21] = tested on: Aspergillus terreus; assay: Antifungal activity against Aspergillus terreus ATCC MYA-3633 measured after 48 hrs by CLSI M38-A2 protocol based method; type: functional; conditions: ATCC MYA-3633, 48 h
[22] = tested on: Candida parapsilosis; assay: Antifungal activity against Candida parapsilosis isolate CP1 measured after 48 hrs by CLSI M27-A3 protocol based method; type: functional; conditions: Lodderomyces parapsilosis, isolate CP1, 48 h
[23] = tested on: Candida albicans; assay: Ratio of MIC for Candida albicans ATCC 10231 in presence of 10% FBS to MIC for Candida albicans ATCC 10231 in absence of 10% FBS; type: functional
[24] = tested on: Cryptococcus neoformans; assay: Antifungal activity against Cryptococcus neoformans isolate CN2 measured after 48 hrs by CLSI M27-A3 protocol based method; type: functional; conditions: Cryptococcus neoformans, isolate CN2, 48 h; read-out: MIC
[25] = tested on: BEAS-2B; assay: Cytotoxicity against human BEAS2B cells up to 7.8 ug/ml after 24 hrs by resazurin based assay; type: cell-based
[26] = Hemolytic activity in mouse RBC at 1.95 ug/ml after 1 hr relative to control; type: ADME, cell-based, Erythrocyte; conditions: mouse red blood cells (erythrocytes), at 1.95 µg/mL, read-out: Activity
[27] = tested on: Aspergillus nidulans; assay: Ratio of MIC for Aspergillus nidulans ATCC 38163 in presence of 10% FBS to MIC for Aspergillus nidulans ATCC 38163 in absence of 10% FBS; type: functional
[28] = tested on: Nakaseomyces glabratus; assay: Antifungal activity against Candida glabrata isolate CG1 measured after 48 hrs by CLSI M27-A3 protocol based method; type: functional; conditions: Nakaseomyces glabratus, 48 h; read-out: MIC
[29] = tested on: Cryptococcus neoformans; assay: Antifungal activity against Cryptococcus neoformans isolate CN3 measured after 48 hrs by CLSI M27-A3 protocol based method; type: functional; conditions: Cryptococcus neoformans, isolate CN3, 48 h; read-out: MIC
[30] = tested on: Candida albicans; assay: Antifungal activity against fluconazole/ITC-resistant Candida albicans ATCC MYA-1237 measured after 48 hrs by CLSI M27-A3 protocol based method; type: functional; conditions: Candida albicans, ATCC MYA-1237, 48 h; read-out: MIC
[31] = tested on: Candida albicans; assay: Induction of membrane permeabilization in Candida albicans ATCC 10231 assessed as membrane disruption at 4 times MIC after 1 hr by propidium iodide staining based fluorescence microscopy; type: functional, organism-based
[32] = tested on: Cryptococcus neoformans; assay: Antifungal activity against Cryptococcus neoformans isolate CN1 measured after 48 hrs by CLSI M27-A3 protocol based method; type: functional; conditions: isolate CN1, 48 h
[33] = tested on: Candida parapsilosis; assay: Antifungal activity against Candida parapsilosis isolate CP3 measured after 48 hrs by CLSI M27-A3 protocol based method; type: functional; conditions: Lodderomyces parapsilosis, isolate CP3, 48 h
[34] = tested on: Aspergillus nidulans; assay: Antifungal activity against Aspergillus nidulans ATCC 38163 measured after 48 hrs in presence of 10% FBS by CLSI M38-A2 protocol based method; type: functional; conditions: ATCC 38163, 48 h
[35] = tested on: Pichia kudriavzevii; assay: Antifungal activity against Candida krusei ATCC 6258 measured after 48 hrs by CLSI M27-A3 protocol based method; type: functional; conditions: Pichia kudriavzevii, ATCC 6258, 48 h
[36] = Hemolytic activity in mouse RBC at […] ug/ml after 1 hr relative to control; type: ADME, cell-based, Erythrocyte; conditions: mouse red blood cells (erythrocytes), read-out: Activity
[37] = Hemolytic activity in mouse RBC at 62.5 ug/ml after 1 hr relative to control; type: ADME, cell-based, Erythrocyte; conditions: mouse red blood cells (erythrocytes), read-out: Activity
[38] = tested on: Candida albicans; assay: Antifungal activity against fluconazole/ITC-susceptible Candida albicans ATCC MYA-2876 measured after 48 hrs by CLSI M27-A3 protocol based method; type: functional; conditions: Candida albicans, ATCC MYA-2876, 48 h
[39] = tested on: A549; assay: Cytotoxicity against human A549 cells up to 7.8 ug/ml after 24 hrs by resazurin based assay; type: cell-based; conditions: a549, 24 h

CCCCCCCCCCCCNCC(O)(Cn1cncn1)c1ccc(F)cc1F (stereo not given)
MIC [1]: 2.3 µM (≈ 0.972 µg/mL) | MIC [2]: 4.6 µM (≈ 1.94 µg/mL) | MIC [3]: 0.24 µg/mL | Activity [4]: 0.57% | hemolysis at 1 h, 3.9 ug/ml [5]: 8% | MIC [6]: 2.3 µM (≈ 0.972 µg/mL) | MIC [7]: 4.6 µM (≈ 1.94 µg/mL) | Activity [8]: 36.6% | MIC [9]: 1.95 µg/mL | hemolysis at 1 h, 7.8 ug/ml [10]: 21% | hemolysis at 1 h, 31.3 ug/ml [11]: 100% | Activity [12]: 10% | Activity [13]: 4.69% | MIC [14]: 2.3 µM (≈ 0.972 µg/mL) | hemolysis at 1 h, 0.48 ug/ml [15]: 2% | MIC [16]: 1.1 µM (≈ 0.465 µg/mL) | MIC [17]: 18.5 µM (≈ 7.82 µg/mL) | MIC [18]: 4.6 µM (≈ 1.94 µg/mL) | MIC [19]: 0.57 µM (≈ 0.241 µg/mL) | viability at 24 h, 3.9 ug/ml [20]: > 50% | MIC [21]: 9.2 µM (≈ 3.89 µg/mL) | MIC [22]: 0.14 µM (≈ 0.0592 µg/mL) | Ratio [23]: 2 | MIC [24]: 0.57 µM (≈ 0.241 µg/mL) | Activity [25]: Non-Toxic | hemolysis at 1 h, 1.95 ug/ml [26]: 2% | Ratio [27]: 4 | MIC [28]: 4.6 µM (≈ 1.94 µg/mL) | MIC [29]: 1.1 µM (≈ 0.465 µg/mL) | MIC [30]: 18.5 µM (≈ 7.82 µg/mL) | Activity [31]: Active | MIC [32]: 0.57 µM (≈ 0.241 µg/mL) | MIC [33]: 0.28 µM (≈ 0.118 µg/mL) | MIC [34]: 7.8 µg/mL | MIC [35]: 2.3 µM (≈ 0.972 µg/mL) | hemolysis at 1 h, 0.975 ug/ml [36]: 2% | hemolysis at 1 h, 15.6 ug/ml [36]: 86% | hemolysis at 1 h, 62.5 ug/ml [37]: 98% | MIC [38]: 9.2 µM (≈ 3.89 µg/mL) | Activity [39]: Non-Toxic
